{
  "source": "paper PMC11984586",
  "about": "“A novel spider toxin as a selective antagonist of the Kv1 subfamily of voltage-gated potassium channels through gating modulation” (The Journal of Biological Chemistry, 2025)",
  "assay_type_in_all_cases": "cell-based",
  "key": {"hKv1.5": {"molecular_target": "T1, hKv1.5 (Homo sapiens, UniProt P22460)", "T1 construct": "expressed in transfected cells; host or cells: CHO-K1", "assay": "Whole-cell patch clamp, Kv1.5 ionic current in CHO-K1 cells", "details": "+30 mV, 500 ms, holding −80 mV, mean ± SD, n = 4–7, read-out: IC50, inhibition of Kv1.5 current (full inhibition)", "experimental": "The cDNA of hKv1.1, hKv1.2, hKv1.3, rKv1.4, hKv1.5, mKv1.6, and hKv1.7 were subcloned into mammalian expression vectors pcDNA3.1 or pCMV-blank vectors, as well as other plasmids described previously ([35]). Channel mutants were generated by site-directed mutations. Briefly, the parental channel plasmid was amplified using a pair of oppositely directed primers harboring the designed mutation site, with KOD Fx (TOYOBO Co, Ltd). The resulting PCR mix was treated with FastDigest DpnI (Thermo Fisher Scientific) to remove the methylated template. Ten microliters of the digested product was then used to transform 100 μl E. coli DH5α competent cells. […]\nCHO-K1 cells were selected for expressing Kv channels due to their lack of endogenous Kv channels, while HEK293 or ND7/23 cells were used for Nav and Cav channel expression. […] After 4 to 6 h transfection, cells were seeded onto poly-lysine–coated coverslips, and 24 to 36 h later, transfected cells were ready for patch-clamp analysis. […]\n(§1) For Kv current recordings, the bath solution contained (in mM) the following: 140 NaCl, 5 KCl, 1 MgCl2, 2 CaCl2, 10 glucose, and 10 Hepes (pH 7.3, adjusted with NaOH), and the pipette solution contained (in mM) the following: 140 KCl, 2.5 MgCl2, 11 EGTA, and 10 Hepes (pH 7.3, adjusted with KOH). […] The steady-state fast inactivation of Kv1.3 was measured using a two-pulses protocol. […]"}, "hKv1.1": {"molecular_target": "T2, hKv1.1 (Homo sapiens, UniProt Q09470)", "T2 construct": "expressed in transfected cells; host or cells: CHO-K1", "assay": "Whole-cell patch clamp, Kv1.1 ionic current in CHO-K1 cells", "experimental": "(§2) The cDNA of hKv1.1, hKv1.2, hKv1.3, rKv1.4, hKv1.5, mKv1.6, and hKv1.7 were subcloned into mammalian expression vectors pcDNA3.1 or pCMV-blank vectors, as well as other plasmids described previously ([35]). Channel mutants were generated by site-directed mutations. Briefly, the parental channel plasmid was amplified using a pair of oppositely directed primers harboring the designed mutation site, with KOD Fx (TOYOBO Co, Ltd). The resulting PCR mix was treated with FastDigest DpnI (Thermo Fisher Scientific) to remove the methylated template. Ten microliters of the digested product was then used to transform 100 μl E. coli DH5α competent cells. Transformants were randomly picked and sequenced to confirm the presence of the intended mutation.\n(§3) CHO-K1 cells were selected for expressing Kv channels due to their lack of endogenous Kv channels, while HEK293 or ND7/23 cells were used for Nav and Cav channel expression. CHO-K1 cells were cultured in a Dulbecco's modified Eagle's medium/Ham's F-12 nutrient mixture (DMEM-F12) medium, and HEK293T and ND7/23 cells in DMEM medium, all supplemented with 10% fetal bovine serum and 1% penicillin-streptomycin (all from Gibco, Thermo Fisher Scientific, Inc) under standard conditions (37 °C, 5% CO2, and saturated humidity). These cell lines were purchased from Stem Cell Bank, Chinese Academy of Sciences. Channel plasmids were cotransfected with pEGFP-N1 (encoding GFP) into the respective cells using lipofectamine 2000, following the manufacturer's instructions (Invitrogen, Thermo Fisher Scientific, Inc.). Nav1.9-GFP plasmid was transfected into ND7/23 using the X-tremeGENE HP DNA Transfection Reagent (Roche). After 4 to 6 h transfection, cells were seeded onto poly-lysine–coated coverslips, and 24 to 36 h later, transfected cells were ready for patch-clamp analysis.\n(§4) Patch clamp experiments were conducted using an electrophysiology platform comprising a MultiClamp 700B amplifier and an Axon Digidata 1550 AD/DA convertor (Axon Instruments). Data acquisition was performed with pClamp 10.5 software (Axon Instruments). All experiments were performed at room temperature.\nas §1, with “KOH). Series resistance was maintained below 10 MΩ and compensated to 80%. […] Whole cell conductance (G) at each depolarizing voltage (V) was determined using the equation: G = I/(V−Vrev), where I is the current amplitude, and Vrev is the reversal potential.” for “KOH).”"}, "[1]": {"molecular_target": "T3, Kv1.7/I386C mutant (Kv1.7∗) (Homo sapiens, UniProt Q96RP8, I386C)", "T3 construct": "expressed in transfected cells; host or cells: HEK293T", "T3 sequence (Q96RP8 whole entry I386C)": "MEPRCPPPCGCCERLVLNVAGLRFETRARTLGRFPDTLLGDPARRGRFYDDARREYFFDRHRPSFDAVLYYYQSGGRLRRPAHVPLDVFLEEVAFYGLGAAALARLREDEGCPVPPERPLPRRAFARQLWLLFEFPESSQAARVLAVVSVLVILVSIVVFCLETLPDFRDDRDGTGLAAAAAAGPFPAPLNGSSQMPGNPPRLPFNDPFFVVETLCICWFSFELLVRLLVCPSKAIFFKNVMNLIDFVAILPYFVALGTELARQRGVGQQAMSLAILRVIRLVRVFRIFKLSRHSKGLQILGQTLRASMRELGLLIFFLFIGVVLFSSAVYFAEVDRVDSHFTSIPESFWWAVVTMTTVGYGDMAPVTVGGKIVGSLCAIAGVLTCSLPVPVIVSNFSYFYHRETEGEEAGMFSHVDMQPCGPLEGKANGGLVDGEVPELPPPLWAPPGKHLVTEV", "assay": "Gating-current recording, Kv1.7* in HEK293T cells", "details": "for inhibition at 10 µM: HEK-293T", "experimental": "as §2, §3, §4\nGating currents were recorded by transfecting HEK293T cells with a saturating dose of plasmid to ensure maximal channel expression. The Kv1.3/I472C and Kv1.7/I386C mutants were used to record the IgOFF, minimizing slow voltage sensor return as reported in previous studies ([28]). The bath solution contained (in mM) the following: 140 NMDG, 50 Hepes, 2 CaCl2, 2 MgCl2, 0.1 EDTA, and 0.01 CsCl (pH 7.3, adjusted with methanesulfonic acid), and the pipette solution contained (in mM) the following: 140 NMDG, 1 NMDG-Cl, 50 HF, 5 EGTA, and 50 Hepes (pH 7.3, adjusted with methanesulfonic acid). Gating charge movement (Q) was determined by integrating the area under the IgON and IgOFF traces, representing voltage sensor movement in response to depolarizing pulses. The data were normalized and plotted against voltage to generate Q-V curves, which were fitted using a Boltzmann function to estimate the voltage dependence of charge movement."}},
  "note": "Where two headings read alike, the source gives them in different places. Bridge positions count the residues as written; N and C are the ends. Peptide text beside a SMILES is read from it.",
  "data": [
    {"smiles": "CC[C@H](C)[C@@H]1NC(=O)[C@H](Cc2ccc(O)cc2)NC(=O)[C@H](CCC(N)=O)NC(=O)[C@@H]2CCCN2C(=O)[C@@H]2CSSC[C@H](NC(=O)[C@H](C)NC(=O)[C@H](CO)NC(=O)[C@H](CCC(=O)O)NC(=O)[C@H](CCC(=O)O)NC(=O)[C@@H](N)[C@@H](C)O)C(=O)NCC(=O)NCC(=O)N[C@@H](Cc3ccccc3)C(=O)N[C@@H](CC(N)=O)C(=O)N[C@@H](C)C(=O)N[C@@H](CCCNC(=N)N)C(=O)N[C@H]3CSSC[C@H](NC1=O)C(=O)N[C@@H](CCCCN)C(=O)NCC(=O)N[C@@H](Cc1c[nH]c4ccccc14)C(=O)N[C@@H](CCCNC(=N)N)C(=O)N[C@@H]([C@@H](C)O)C(=O)N[C@@H](CCCCN)C(=O)N[C@@H](CCCNC(=N)N)C(=O)N[C@H](C(=O)N[C@@H](CC(C)C)C(=O)N[C@@H](CC(N)=O)C(=O)N1CCC[C@H]1C(=O)O)CSSC[C@H](NC(=O)[C@H](CCCCN)NC(=O)[C@H](Cc1c[nH]cn1)NC(=O)[C@H](CC(C)C)NC(=O)[C@@H]1CCCN1C3=O)C(=O)N2", "note": "[MrVIII] (H-TEESACGGFNARCPLHKCCPQYICKGWRTKRCLNP-OH; disulfide 6-19, 13-24, 18-32; N-terminus and C-terminus assumed)", "values": [
      {"measurement": "IC50", "setting": "hKv1.5", "value": "5.7 ± 2.2", "unit": "nM"},
      {"measurement": "inhi%(495 ms), Kv1.1 current", "setting": "hKv1.1; 10 μM (saturating), current at 495 ms, +30 mV, mean ± SD, SD", "value": "23.9 ± 18.5", "unit": "%"},
      {"measurement": "inhibitory effect on Kv1.1 current at 495 ms once depolarizing voltage exceeded +40 mV", "setting": "hKv1.1; 10 μM MrVIII, I-V protocol", "value": "negligible"},
      {"measurement": "inhibition at 10 µM", "setting": "hKv1.1; CHO-K1, 10 μM MrVIII, I-V protocol, holding −80 mV, mean ± SD, n = 5–7, SD, read-out: inhibition of Kv1.1 current at 50 ms at +100 mV", "value": "11.6 ± 7.9", "unit": "%"},
      {"measurement": "IC50", "setting": "hKv1.1; current measured at 50 ms of a 500 ms depolarization to +30 mV, mean ± SD, n = 4–7, SD", "value": "50.9 ± 21.7", "unit": "nM"},
      {"measurement": "Va of Q-V curve of Kv1.7∗ after toxin", "setting": "[1]; 500 nM MrVIII, before toxin −6.4 ± 2.9 mV, mean ± SD, n = 5, SD", "value": "−4.3 ± 3.8", "unit": "mV"},
      {"measurement": "effect on IgON of Kv1.7∗", "setting": "[1]; 10 μM MrVIII, 500 ms depolarization", "value": "completely inhibited"},
      {"measurement": "IC50", "setting": "[1]; +30 mV for 50 ms, held at −100 mV, HEK293T, mean ± SD, n = 11, SD, read-out: IC50, inhibition of IgON current of Kv1.7∗", "value": "214 ± 91.8", "unit": "nM"},
      {"measurement": "inhibition at 10 µM", "setting": "[1]; 10 μM MrVIII, 50 ms depolarization at +30 mV, mean ± SD, n = 11, SD, read-out: inhibition of IgOFF of Kv1.7∗", "value": "~74.1", "unit": "%"},
      {"measurement": "inhibition at 10 µM", "setting": "[1]; 10 μM MrVIII, 500 ms depolarization, mean ± SD, n = 5, SD, read-out: inhibition rate of IgOFF of Kv1.7∗", "value": "13.1 ± 5.5", "unit": "%"}
    ]}
  ]
}
